Format in all cases: cell-based
Holding throughout (details): 33° C., 4 days

The subject of assay [1] is Escherichia coli H-9340. As to the kind of experiment: Comparative test of growth on agar plate medium containing primaquine or novobiocin, parent strain H-9340. The method, then: (§1) Preparation of an L-histidine-producing mutant strain having resistance to a DNA gyrase inhibitor or an L-histidine-producing mutant strain having both resistance to a DNA gyrase inhibitor and resistance to an aminoquinoline derivative The L-histidine-producing mutant strain H-9340 having resistance to 1,2,4-triazole alanine, which was derived from methionine-requiring Escherichia coli ATCC 21318 was subjected to a mutation treatment with N-methyl-N′-nitro-N-nitrosoguanidine (NTG) (0.2 mg/ml, 30° C., 30 minutes) according to a conventional method and spread on a 1 g/liter noboviocin monosodium salt-containing agar plate medium [0.2% glucose, 0.3% potassium dihydrogen phosphate, 0.6% disodium hydrogen phosphate, 0.01% magnesium sulfate, 0.05% sodium chloride, 0.1% ammonium chloride, 50 mg/liter required nutrient (DL-methionine) and 1.5% agar, pH 7.2].
(§2) Comparative test of growth on agar plate culture medium containing primaquine or novobiocin
The growth of the mutant strains H-9342 and H-9343 obtained in Example 1 was compared with the growth of the parent strain H-9340 on an agar plate medium containing primaquine or novobiocin. […]

Assay [2] has as its system Escherichia coli H-9342. As to the kind of experiment: Comparative test of growth on agar plate medium containing primaquine or novobiocin, mutant strain H-9342. The method, then: as §1
The mutant strain was cultured on the agar plate medium at 30° C. for 2 to 6 days, and the growing large colonies were picked up and separated to obtain the strain H-9342.
as §2
(§3) The growth of the mutant strains H-9342 and H-9343 obtained in Example 1 was compared with the growth of the parent strain H-9340 on an agar plate medium containing primaquine or novobiocin.
(§4) Each of the mutant strains, which had been cultured in a natural medium for 24 hours and suspended in physiological saline, was spread at a cell density of 1 to 10 cells/cm^2 on the agar plate medium containing primaquine disodium salt or novobiocin monosodium salt at the same concentration as that at the time of acquisition of each mutant strain, and cultured at 33° C. for 4 days.

Assay [3] has as its system Escherichia coli H-9343. Put plainly: Comparative test of growth on agar plate medium containing primaquine or novobiocin, mutant strain H-9343. The method, then: Furthermore, the obtained colony was subjected to a mutation treatment with NTG (0.2 mg/ml, 30° C., 30 minutes), followed by spreading on an agar plate culture medium containing 150 mg/liter primaquine disodium salt. Culturing was carried out thereon at 30° C. for 2 to 6 days, and growing large colonies were picked up and separated to obtain the strain H-9343. The strains H-9340, H-9342 and H-9343 were deposited on March 9, 1999 with the National Institute of Bioscience and Human-Technology, Agency of Industrial Science and Technology (1-3, Higashi 1-chome, Tsukuba-shi, Ibaraki-ken, Japan) under the Budapest Treaty with accession Nos. FERM BP-6673, FERM BP-6675 and FERM BP-6676, respectively.
as §2, §3, §4

Where [4] appears, read: 150 mg/liter primaquine disodium salt in agar medium.
Setting [5] is: 1 g/liter novobiocin monosodium salt in agar medium.

This note sets out measurements from patent publication US6706517B2, “Method for producing L-amino acids by fermentation” (priority 1999, dated 2004).

Structures can show the parent of a compound that is named as a salt.

Take `COc1cc(NC(C)CCCN)c2ncccc2c1` (stereo not shown) [Primaquine disodium salt, primaquine disodium salt]: the “Growth or non-growth on agar plate medium” value in assay [1] (setting [4]) is given as “−”; in assay [2] (setting [4]), “−”; in assay [3] (setting [4]) it was “+”. The “Growth on the primaquine-containing culture medium (in words)” value in assay [2] (primaquine-containing agar medium) is given as “did not grow”.

As to `CO[C@@H]1[C@@H](OC(N)=O)[C@@H](O)[C@H](Oc2ccc3c(O)c(NC(=O)c4ccc(O)c(CC=C(C)C)c4)c(=O)oc3c2C)OC1(C)C` [Novobiocin monosodium salt, novobiocin monosodium salt], the “Growth or non-growth on agar plate medium” value is given as “−” in assay [1] (setting [5]), “+” in assay [2] (setting [5]) and “+” in assay [3] (setting [5]).
